Experimental findings from patent publication US20260123631A1, “NATURAL PORPHIN SALT AND USE THEREOF AS PLANT GROWTH REGULATOR AND PLANT IMMUNITY INDUCER” (NANJING BOSTEC BIOLOGICAL ENGINEERING CO., LTD, priority 2022, published 2026) are described below.

In one data set the test system is wheat. Put plainly: Spraying on wheat to increase a yield. It counts as in vivo, wheat (Huaimai 35). The procedure: Crop: Huaimai 35. […] On Jun. 11, 2021, the harvesting was conducted throughout the field at a time.
The nature of data set [1]: Stability of sample solutions in the dark/under light. The class given is physicochemical. The procedure: Determination: An appropriate amount of a salt sample was taken, dissolved with water, and diluted to prepare a test solution with a concentration of about 10 ppm. An acidic reference substance (extremely-insoluble in water) was prepared with a 30% to 50% ethanol aqueous solution into a test solution with a concentration of about 10 ppm.
Each test solution was scanned by an ultraviolet spectrophotometer (at 0 h) for absorbance in a range of 200 nm to 800 nm immediately after being prepared. Then a test solution of each sample was divided into two parts. One part was placed at room temperature of 25° C. in the dark, and the other part was placed under light with a light intensity of 30,000 lux. At 1 h, 2 h, and 3 h, a solution sample was collected and scanned for absorbance respectively.
An absorbance value of a maximum absorption peak at 0 h (starting) of each test solution was set as a relative content of 100%, and a ratio of an absorbance value at each time point to the absorbance value at 0 h was calculated to determine a relative content, %.

The test system of a further data set is mosaic virus. Put plainly: Controlling diseases in tobacco by spraying. It counts as in vivo, tobacco (Yunyan 87). Particulars: 0.20 ppm sprayed twice, 30 L/mu. The text has this:
For each treatment, 4 plots relatively scattered were selected from the field, with each plot of 50 m^2. An agent was sprayed twice around May 28 and June 4 during a root-spreading stage (12 leaves to 14 leaves) after tobacco transplanting, respectively. A same spraying volume (30 L/mu) was adopted for each treatment. During the spraying operation, each leaf surface should be sprayed evenly without dead corners left.
On July 15, tobacco plants in all treatment plots were surveyed. An incidence grading survey was conducted according to the Grade and investigation method of tobacco diseases and insect pests GB/T23222-2008, and an incidence rate and a disease index were counted for each treatment plot.

A short description of data set [2]: Water solubility of the prepared salts. The class given is physicochemical.
Another data set addresses chlorophyllase. Put plainly: In vitro chlorophyllase-inhibiting activity test. The following applies: substrate chlorophyll 120 ppm, sample 0.3 ppm to 30.0 ppm. The class given is biochemical, mung bean. The procedure: A chlorophyllase inhibition rate of a salt sample solution at each concentration was determined, and an IC50 value for a chlorophyllase inhibition activity of a salt sample was calculated.

Data set [3] is described as follows: Dilution and pH determination for sample solutions. The class given is physicochemical. The procedure: Method: 0.2500 g of a sample was accurately weighed and added to a 25 mL volumetric flask, dissolved with purified water, and diluted to a specified scale to prepare a 1.00% (10,000.0 ppm) initial solution. The initial solution was diluted with purified water in different ratios to prepare a series of solutions with a concentration of 1,000.0 ppm to 0.1 ppm. A pH value of each sample was determined three times.

The test system of another data set is mung bean seedlings. The data set is described as follows: Inducing adventitious roots from hypocotyls of mung bean. The class given is in vivo. The following applies: day 7. The procedure: Test solution preparation: 8 mL of a commercially-available STANLEY universal hydroponic nutrient solution was taken and diluted with tap water to 3,200 mL (400-fold dilution) to produce a dilute nutrient solution. An appropriate amount of each of salt samples such as protoporphyrin disodium and potassium chlorhematin was weighed and prepared with the dilute nutrient solution into 0.010 ppm and 0.1 ppm sample test solutions, and 150 mL of each test solution was taken. 150 mL of the dilute nutrient solution was taken as a blank control. The test solutions and the control solution were placed in brown bottles, and the brown bottles were sealed with a black film. Mung bean seedlings with uniform growth and a seedling height of 7 cm to 8 cm were selected, and cut at 3 cm below a first true leaf node. 8 mung bean seedlings were inserted into each bottle (with roots removed) to make lower radicles soaked in a solution. Mung bean seedlings were treated at room temperature of 20° C. to 25° C. for 7 d in total, during which the solution was changed every 2 d. On day 2 to day 3 of the treatment, there was a significant difference. On day 7, the observation and determination were conducted. An average adventitious root number and an average total adventitious root length for each seedling were calculated, and results were shown in the following table: […]

[4] abbreviates: 3 mg/mu sprayed 3 times (0.2, 0.1, 0.1 ppm).
[5] abbreviates: under light 30,000 lux, 1 h, salts in water, acidic reference in 30% to 50% ethanol.
The mark [6] stands for this setting: under light 30,000 lux, 2 h, salts in water, acidic reference in 30% to 50% ethanol.
[7] abbreviates: under light 30,000 lux, 3 h, salts in water, acidic reference in 30% to 50% ethanol.

Regarding iron chlorin [reference compound], the “Actual yield per mu” value in the data set with wheat (setting [4]) was determined as 586.9 kg. Moreover, the “Ear number per mu” value in the data set with wheat (setting [4]) is reported as 31.5 10,000. Moreover, in the data set on wheat (setting [4]), the “Grain number per ear” value was 34.6 grains/ear. The Thousand-grain weight in the data set with wheat (setting [4]) is 53.9 g. For the same compound, the “Yield increase rate per mu” value with wheat (3 mg/mu sprayed 3 times, versus clear water) came out at 4.99%. For the same compound, the Relative content in data set [1] (in the dark, 25° C., 0 h) amounted to 100.0%; in data set [1] (in the dark, 25° C., 1 h), 99.25%; in data set [1] (in the dark, 25° C., 2 h), 99.26%; in data set [1] (in the dark, 25° C., 3 h), 99.20%; in data set [1] (under light 30,000 lux, 0 h) it was 100.00%; in data set [1] (setting [5]) it was 31.04%. The Relative content is given as 28.12% in data set [1] (setting [6]) and 23.73% in data set [1] (setting [7]). Further, the Disease index with mosaic virus came to 8.90. The compound also had a Relative control effect in the data set with mosaic virus of 65.57%.
Regarding zinc chlorin [Example 60], the Relative content was determined as 55.66% in data set [1] (setting [5]), 50.60% in data set [1] (setting [6]) and 45.30% in data set [1] (setting [7]). Also, the solubility in water entry in data set [2] is recorded as “slightly soluble”. Moreover, on chlorophyllase, the “IC50 for chlorophyllase inhibition activity” value is 6.37 ppm.
In the case of copper zinc chlorophyllin [Example 42], the Relative content in data set [1] (setting [5]) stood at 88.43%; in data set [1] (setting [6]) it was 93.28%; in data set [1] (setting [7]) it was 70.90%. The solubility in water entry in data set [2] was “slightly soluble”. The “IC50 for chlorophyllase inhibition activity” value against chlorophyllase is 17.76 ppm.
As to “potassium copper chlorophyllin [Example 43]”, the Relative content in data set [1] (setting [5]) is on record as 83.53%; in data set [1] (setting [6]) it was 77.11%; in data set [1] (setting [7]) it was 78.11%. In addition, the solubility in water entry in data set [2] is recorded as “easily soluble”. In addition, the “IC50 for chlorophyllase inhibition activity” value on chlorophyllase was determined as 12.89 ppm.
As to “potassium iron chlorophyllin [Example 30]”, the Relative content in data set [1] (setting [5]) worked out at 72.04%; in data set [1] (setting [6]), 65.63%; in data set [1] (setting [7]), 57.54%. Further, the solubility in water entry in data set [2] is “easily soluble”. For the same compound, the “IC50 for chlorophyllase inhibition activity” value at chlorophyllase is 5.09 ppm.
As to copper iron chlorin [Example 29], the figures for the Relative content in data set [1] (setting [5]), in data set [1] (setting [6]) and in data set [1] (setting [7]) were 78.52%, 71.02% and 64.29%, respectively. For the same compound, in data set [2], the solubility in water entry is recorded as “slightly soluble”. At chlorophyllase, the “IC50 for chlorophyllase inhibition activity” value worked out at 4.92 ppm.
For manganese iron chlorin [Example 27], in that order: 72.13%, 68.26%, 63.87%, “slightly soluble” and 5.20 ppm.
For the compound “manganese copper chlorophyllin [Example 47]”, the Relative content worked out at 76.34% in data set [1] (setting [5]), 72.11% in data set [1] (setting [6]) and 67.37% in data set [1] (setting [7]). Further, the solubility in water entry in data set [2] was “soluble”. Also, the “IC50 for chlorophyllase inhibition activity” value on chlorophyllase is 13.85 ppm.
The corresponding values for manganese chlorin [Example 59] are 44.94%, 40.28%, 34.21%, “slightly soluble” and 6.23 ppm.
Take potassium chlorin [Example 52]: the values for the Relative content in data set [1] (setting [5]), in data set [1] (setting [6]) and in data set [1] (setting [7]) were 60.05%, 46.81% and 42.89%, respectively. Further, in data set [2], the solubility in water entry is recorded as “easily soluble”. Besides, on chlorophyllase, the “IC50 for chlorophyllase inhibition activity” value was 5.98 ppm.
Consider magnesium iron chlorophyllin, for which the pH result was “(6.94)” in data set [3] (0.1 ppm in purified water); “(7.11)” in data set [3] (1.0 ppm in purified water); “(7.40)” in data set [3] (10.0 ppm in purified water); “(7.65)” in data set [3] (20.0 ppm in purified water); “(7.78)” in data set [3] (30.0 ppm in purified water); “(8.18)” in data set [3] (100.0 ppm in purified water). Also, the results for the Relative content in data set [1] (setting [5]), in data set [1] (setting [6]) and in data set [1] (setting [7]) were 71.60%, 62.44% and 63.14%, respectively. Besides, the “IC50 for chlorophyllase inhibition activity” value at chlorophyllase came out at 5.26 ppm.
With sodium chlorin [Example 53], the Relative content was 41.71% in data set [1] (setting [5]), 30.78% in data set [1] (setting [6]) and 26.96% in data set [1] (setting [7]). Further, the solubility in water entry in data set [2] was “easily soluble”. Besides, the “IC50 for chlorophyllase inhibition activity” value against chlorophyllase was determined as 6.03 ppm.
For copper chlorin [Example 61], in that order: 85.27%, 82.15%, 80.17%, “slightly soluble” and 6.18 ppm.
Regarding `C=CC1=C(C)c2cc3[nH]c(cc4nc(cc5[nH]c(cc1n2)c(C)c5CCC(=O)O)C(CCC(=O)O)=C4C)c(C)c3C=C` [Protoporphyrin disodium, protoporphyrin disodium, reference compound], the pH entry in data set [3] (0.1 ppm in purified water) is “(6.61)”; in data set [3] (1.0 ppm in purified water), “(6.67)”; in data set [3] (10.0 ppm in purified water) it was “(7.21)”; in data set [3] (20.0 ppm in purified water), “(7.37)”; in data set [3] (30.0 ppm in purified water), “(7.50)”; in data set [3] (100.0 ppm in purified water) it was “(8.05)”. Moreover, the values for the pH result in data set [3] (1000.0 ppm in purified water) and in data set [3] (10000.0 ppm in purified water) were “(9.25)” and “(10.60)”, respectively. Also, the Relative content in data set [1] (setting [5]) amounted to 63.47%; in data set [1] (setting [6]) it was 62.74%; in data set [1] (setting [7]) it was 57.05%. Moreover, the Adventitious root number was found to be 9.61 root/seedling in the data set on mung bean seedlings (0.01 ppm) and 9.77 root/seedling in the data set on mung bean seedlings (0.1 ppm). Moreover, the “Total adventitious root length” value is 20.74 cm/seedling in the data set with mung bean seedlings (0.01 ppm) and 21.30 cm/seedling in the data set on mung bean seedlings (0.1 ppm).
In the case of copper iron chlorophyllin [Example 34], the Relative content is 72.13% in data set [1] (setting [5]), 68.58% in data set [1] (setting [6]) and 65.03% in data set [1] (setting [7]). The solubility in water result in data set [2] is reported as “slightly soluble”. Moreover, the “IC50 for chlorophyllase inhibition activity” value on chlorophyllase was 5.04 ppm.
For “copper copper chlorophyllin [Example 51]”, in that order: 98.85%, 97.47%, 96.78%, “slightly soluble” and 13.70 ppm.
